The values below are quoted from earlier work in publication PMC8891573, “Dysregulation of the Nitric Oxide/Dimethylarginine Pathway in Hypoxic Pulmonary Vasoconstriction—Molecular Mechanisms and Clinical Significance” (Frontiers in Medicine, 2022).

Where two headings read alike, the source gives them in different places.

For data set [1] the following is noted: inhaled NO, small trials.
A further data set has as its system eNOS. The following applies: for effect on NOS activity: competition with L-arginine for the NOS catalytic site.
The test system of a further data set is CAT-2. The arrangement: method as in PMID 28684763, PMID 9701046.
On the set-up of data set [2]: method as in PMID 9799202.
A further data set relates to mouse lungs. Further details: method as in PMID 19648472. Particulars: oral L-arginine treatment.
A further data set deals with isolated aortic rings. The arrangement: method as in PMID 2870025.
The subject of a further data set is ETA and ETB receptors. The arrangement: method as in PMID 8847282, PMID 8873714, PMID 20415698. Particulars: animal models and clinical studies.
For a further data set, the system named is mice. The arrangement: method as in PMID 17068215. Particulars: acute HX exposure, HC or SC mice, i.p. injection of ADMA.

Take Nitric oxide [NO]: in data set [1], the “effects on COVID-19-associated hypoxaemia and outcome” value is reported as “inconclusive”.

With `CN=C(NC)NCCC[C@H](N)C(=O)O` [SDMA, symmetric dimethylarginine], the “effect on NOS activity” value in the data set on eNOS is reported as “unable to directly interfere with NOS activity”. In addition, in the data set on CAT-2, the “inhibition of CAT-2, cellular uptake transporter for L-arginine” value was “may inhibit”.

`N=C(N)NCCC[C@H](N)C(=O)O` [L-arginine]: the “reversal of impaired NO generation and endothelial dysfunction due to elevated ADMA” value in data set [2] was “reversible”. The “PRMT2, DDAH2, ADMA and nitrotyrosine changes in ovalbumin-treated mice” value in the data set on mouse lungs was “PRMT2 ↑ and DDAH2 ↓ in ovalbumin-treated mice, along with ↑ ADMA and ↑ nitrotyrosine; Reversal with oral L-arginine treatment”.

On to `CC(=O)OCC[N+](C)(C)C` [acetylcholine], for which the “vascular response of aortic rings” value in the data set with isolated aortic rings (Wistar rats) is listed as “endothelium-dependent vasodilation”; in the data set with isolated aortic rings (spontaneously hypertensive rats (SHR)), “vasoconstriction”.

As to `COc1ccccc1Oc1c(NS(=O)(=O)c2ccc(C(C)(C)C)cc2)nc(-c2ncccn2)nc1OCCO` [bosentan], the “effect on HPV” value with ETA and ETB receptors is “variable effects”.

Regarding `CN(C)C(N)=NCCC[C@H](N)C(=O)O` [ADMA, asymmetric dimethylarginine], in the data set with eNOS, the “inhibition of eNOS” value is “competitive inhibitor” and the “effect on NOS activity” value is “competitively inhibits NOS activity”. Besides, the “inhibition of CAT-2, cellular uptake transporter for L-arginine” value in the data set with CAT-2 is listed as “may inhibit”. Further, in the data set on mice, the HX survival time entry was “ADMA increased HX survival time in HC and in SC mice; the effect was mediated by regulation of eNOS activity”.
